# Measured values reported in patent publication US7951829B2, “Benzimidazole modulators of VR1” (Janssen Pharmaceutica NV, priority 2006, dated 2011).
# Columns and labels:
# hVR1 [1] = target: T1, hVR1 (Homo sapiens, UniProt Q8NER1); assay: Human VR1 (hVR1) Binding Assay ([3H] RTX binding); details: inhibition of [3H] RTX binding, membranes of HEK293 cells transfected with hVR1
# T1 construct: expressed in transfected cells; host or cells: HEK293
# hVR1 [2] = target: T1, hVR1; assay: Human VR1 (hVR1) Functional Assay (FLIPR intracellular calcium, capsaicin challenge); format: cell-based; details: capsaicin 0.030 μM, HEK293 cells expressing hVR1; for inhibition at 1 µM: test concentration 1 μM
# male Sprague-Dawley rats = assay: Chemically-Induced Models of Inflammatory Pain (CFA, thermal hyperalgesia, radiant heat); format: in vivo; details: 5 h, rat, 10 mg/kg oral, maximum during 300 min test, read-out: % Reversal (maximal percent reversal of hypersensitivity)
# Experimental: Compounds of the present invention were tested in animal models of inflammation and inflammatory pain. To assess the ability of test compounds to reverse thermal hyperalgesia, baseline response latencies on a radiant heat (RH) paw stimulator were obtained before an intraplantar injection of 100 μL (1 μg/μL) CFA (1:1 CFA:saline) in male Sprague-Dawley rats. Only withdrawal responses that were quick hind paw movements (with or without licking of the hind paw) were recorded. Paw movements associated with locomotion or a shifting of weight were not considered a withdrawal response. The stimulus intensity that produced 10-15 sec baseline withdrawal latencies was used and a maximum cutoff of 20 sec was imposed. Hypersensitivity was evaluated 24 hr after CFA.
# Following the post-inflammogen latency assessment, rats were orally dosed (2.5 mL/kg) with test compound (10 mg/kg) or vehicle (20% hydroxypropyl beta cyclodextran). To determine the time of peak effect, latencies were redetermined 30, 60, 100, 180 and 300 min after compound administration.
# Data are presented as the maximal percent reversal of hypersensitivity obtained during the 300 min test, which was calculated for each animal according to the formula: % reversal=100%×(treatment response−post-inflammogen response)/(pre-inflammogen response−post-inflammogen response)
# T1 sequence (Q8NER1 whole entry): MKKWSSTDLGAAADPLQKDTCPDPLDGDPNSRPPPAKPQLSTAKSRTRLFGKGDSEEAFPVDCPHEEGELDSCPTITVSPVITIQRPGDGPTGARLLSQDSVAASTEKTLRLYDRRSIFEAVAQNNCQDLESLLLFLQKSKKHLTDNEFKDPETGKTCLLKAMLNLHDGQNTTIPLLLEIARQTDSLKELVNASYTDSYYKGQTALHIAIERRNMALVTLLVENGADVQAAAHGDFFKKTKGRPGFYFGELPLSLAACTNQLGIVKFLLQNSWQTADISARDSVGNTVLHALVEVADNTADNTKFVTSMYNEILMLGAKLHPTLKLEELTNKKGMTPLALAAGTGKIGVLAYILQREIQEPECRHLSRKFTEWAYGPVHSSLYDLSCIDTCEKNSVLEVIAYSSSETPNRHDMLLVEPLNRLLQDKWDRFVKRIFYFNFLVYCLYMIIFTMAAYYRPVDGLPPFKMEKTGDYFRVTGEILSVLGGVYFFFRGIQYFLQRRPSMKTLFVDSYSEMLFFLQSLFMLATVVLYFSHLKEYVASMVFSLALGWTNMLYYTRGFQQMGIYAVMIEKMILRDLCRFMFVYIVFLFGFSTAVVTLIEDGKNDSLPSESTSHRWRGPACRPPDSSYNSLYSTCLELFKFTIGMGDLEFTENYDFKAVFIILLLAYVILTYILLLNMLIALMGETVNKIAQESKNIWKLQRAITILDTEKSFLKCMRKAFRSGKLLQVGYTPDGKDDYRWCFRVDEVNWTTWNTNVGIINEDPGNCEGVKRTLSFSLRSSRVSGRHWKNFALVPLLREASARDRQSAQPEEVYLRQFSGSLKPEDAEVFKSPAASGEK
Compound,Ki (hVR1 [1]) [µM],IC50 (hVR1 [2]) [µM],inhibition at 1 µM (hVR1 [2]) [%],inhibition in vivo at 10 mg/kg (male Sprague-Dawley rats) [%]
"CC(C)(C)c1ccc(CCc2nc3cc(-c4ccccc4O)ccc3[nH]2)cc1 [Cpd 32, 2-{2-[2-(4-tert-butyl-phenyl)-ethyl]-1H-benzimidazol-5-yl}-phenol]",0.1,0.38,77,
"CC(C)(O)c1ccccc1-c1ccc2[nH]c(CCc3ccc(C(F)(F)F)cc3)nc2c1 [Cpd 464, 2-(2-{2-[2-(4-trifluoromethyl-phenyl)-ethyl]-1H-benzimidazol-5-yl}-phenyl)-propan-2-ol]",,0.003,100,65
"CC(C)(C)c1ccc(/C=C/c2nc3cc(-c4ccccc4C(N)=O)ccc3[nH]2)cc1 [Cpd 5, (E)-2-{2-[2-(4-tert-butyl-phenyl)-vinyl]-1H-benzimidazol-5-yl}-benzamide]",0.017,0.071,100,
"CC(=O)Nc1ccccc1-c1cc2nc(/C=C/c3ccc(C(C)(C)C)cc3)[nH]c2cc1C(F)(F)F [Cpd 50, (E)-N-(2-{2-[2-(4-tert-butyl-phenyl)-vinyl]-6-trifluoromethyl-1H-benzimidazol-5-yl}-phenyl)-acetamide]",0.016,0.1,100,
"CS(=O)(=O)Nc1ccccc1-c1ccc2[nH]c(CCc3ccc(C(F)(F)F)cc3)nc2c1 [Cpd 31, N-(2-{2-[2-(4-trifluoromethyl-phenyl)-ethyl]-1H-benzimidazol-5-yl}-phenyl)-methanesulfonamide]",,0.013,,72
"CC(=O)c1ccccc1-c1ccc2[nH]c(/C=C/c3ccc(S(=O)(=O)C(F)(F)F)cc3)nc2c1 [Cpd 40, (E)-1-(2-{2-[2-(4-trifluoromethanesulfonyl-phenyl)-vinyl]-1H-benzimidazol-5-yl}-phenyl)-ethanone]",0.081,0.054,99,
"Oc1ccccc1-c1ccc2[nH]c(/C=C/c3ccc(C(F)(F)F)cc3)nc2c1 [Cpd 14, (E)-2-{2-[2-(4-trifluoromethyl-phenyl)-vinyl]-1H-benzimidazol-5-yl}-phenol]",0.38,1,49,
"CC(=O)Nc1ccccc1-c1ccc2[nH]c(/C=C/c3ccc(C(C)(C)C)cc3)nc2c1 [Cpd 4, (E)-N-(2-{2-[2-(4-tert-butyl-phenyl)-vinyl]-1H-benzimidazol-5-yl}-phenyl)-acetamide]",0.031,0.4,78,
"CC(=O)c1ccccc1-c1ccc2[nH]c(/C=C/c3ccc(C(C)(C)C)cc3)nc2c1 [Cpd 1, (E)-1-(2-{2-[2-(4-tert-butyl-phenyl)-vinyl]-1H-benzimidazol-5-yl}-phenyl)-ethanone]",0.0097,0.027,100,
"CS(=O)(=O)Nc1ccccc1-c1ccc2[nH]c(/C=C/c3ccc(OC(F)(F)F)cc3)nc2c1 [Cpd 22, (E)-N-(2-{2-[2-(4-trifluoromethoxy-phenyl)-vinyl]-1H-benzimidazol-5-yl}-phenyl)-methanesulfonamide]",,0.018,,18
"CC(=O)c1ccccc1-c1ccc2[nH]c(/C=C/c3ccc(C(F)(F)F)cc3)nc2c1 [Cpd 15, (E)-1-(2-{2-[2-(4-trifluoromethyl-phenyl)-vinyl]-1H-benzimidazol-5-yl}-phenyl)-ethanone]",0.041,0.12,100,
"CC(C)(C)c1ccc(/C=C/c2nc3cc(-c4ccccc4O)ccc3[nH]2)cc1 [Cpd 3, (E)-2-{2-[2-(4-tert-butyl-phenyl)-vinyl]-1H-benzimidazol-5-yl}-phenol]",0.02,0.14,,
"CC(C)(C)c1ccc(/C=C/c2nc3cc(-c4ccccc4NS(C)(=O)=O)ccc3[nH]2)cc1 [Cpd 9, (E)-N-(2-{2-[2-(4-tert-butyl-phenyl)-vinyl]-1H-benzimidazol-5-yl}-phenyl)-methanesulfonamide]",0.0009,0.002,99,
"NS(=O)(=O)c1ccccc1-c1ccc2[nH]c(/C=C/c3ccc(S(=O)(=O)C(F)(F)F)cc3)nc2c1 [Cpd 71, (E)-2-{2-[2-(4-trifluoromethanesulfonyl-phenyl)-vinyl]-1H-benzimidazol-5-yl}-benzenesulfonamide]",0.022,0.022,99,
"Oc1ccccc1-c1ccc2[nH]c(/C=C/c3ccc(SC(F)(F)F)cc3)nc2c1 [Cpd 36, (E)-2-{2-[2-(4-trifluoromethylsulfanyl-phenyl)-vinyl]-1H-benzimidazol-5-yl}-phenol]",0.82,,44,
"CC(=O)c1ccccc1-c1ccc2[nH]c(/C=C/c3ccc(F)c(F)c3)nc2c1 [Cpd 27, (E)-1-(2-{2-[2-(3,4-difluoro-phenyl)-vinyl]-1H-benzimidazol-5-yl}-phenyl)-ethanone]",1.8,0.26,100,
"NS(=O)(=O)c1ccccc1-c1ccc2[nH]c(/C=C/c3ccc(OC(F)(F)F)cc3)nc2c1 [Cpd 69, (E)-2-{2-[2-(4-trifluoromethoxy-phenyl)-vinyl]-1H-benzimidazol-5-yl}-benzenesulfonamide]",0.006,0.006,98,
"NS(=O)(=O)c1ccccc1-c1ccc2[nH]c(/C=C/c3ccc(Cl)cc3)nc2c1 [Cpd 79, (E)-2-{2-[2-(4-chloro-phenyl)-vinyl]-1H-benzimidazol-5-yl}-benzenesulfonamide]",0.018,0.007,100,
"CC(=O)Nc1ccccc1-c1cc2nc(/C=C/c3ccc(C(F)(F)F)cc3)[nH]c2cc1C(F)(F)F [Cpd 56, (E)-N-(2-{6-trifluoromethyl-2-[2-(4-trifluoromethyl-phenyl)-vinyl]-1H-benzimidazol-5-yl}-phenyl)-acetamide]",0.12,0.11,100,
"CNS(=O)(=O)c1ccccc1-c1ccc2[nH]c(/C=C/c3ccc(C(F)(F)F)c(F)c3)nc2c1 [Cpd 319, (E)-2-{2-[2-(3-fluoro-4-trifluoromethyl-phenyl)-vinyl]-1H-benzimidazol-5-yl}-N-methyl-benzenesulfonamide]",0.006,0.01,100,
"NS(=O)(=O)c1ccccc1-c1ccc2[nH]c(/C=C/c3ccc(F)cc3)nc2c1 [Cpd 434, (E)-2-{2-[2-(4-fluoro-phenyl)-vinyl]-1H-benzimidazol-5-yl}-benzenesulfonamide]",0.039,0.007,98,
"CC(C)(C)c1ccc(/C=C/c2nc3cc(-c4ccccc4CO)c(C(F)(F)F)cc3[nH]2)cc1 [Cpd 51, (E)-(2-{2-[2-(4-tert-butyl-phenyl)-vinyl]-6-trifluoromethyl-1H-benzimidazol-5-yl}-phenyl)-methanol]",0.0064,0.066,100,
"CC(C)(O)c1ccccc1-c1ccc2[nH]c(/C=C/c3ccc(OC(F)(F)F)cc3)nc2c1 [Cpd 23, (E)-2-(2-{2-[2-(4-trifluoromethoxy-phenyl)-vinyl]-1H-benzimidazol-5-yl}-phenyl)-propan-2-ol]",,,,31
"CC(C)c1ccc(/C=C/c2nc3cc(-c4ccccc4NS(C)(=O)=O)ccc3[nH]2)cc1 [Cpd 407, (E)-N-(2-{2-[2-(4-isopropyl-phenyl)-vinyl]-1H-benzimidazol-5-yl}-phenyl)-methanesulfonamide]",0.0057,0.009,96,
"CNS(=O)(=O)c1ccccc1-c1ccc2[nH]c(/C=C/c3ccc(Br)cc3)nc2c1 [Cpd 312, (E)-2-{2-[2-(4-bromo-phenyl)-vinyl]-1H-benzimidazol-5-yl}-N-methyl-benzenesulfonamide]",0.019,0.006,100,
"Oc1ccccc1-c1cc2nc(/C=C/c3ccc(C(F)(F)F)cc3)[nH]c2cc1Cl [Cpd 68, (E)-2-{6-chloro-2-[2-(4-trifluoromethyl-phenyl)-vinyl]-1H-benzimidazol-5-yl}-phenol]",,0.329,,
"NS(=O)(=O)c1ccccc1-c1ccc2[nH]c(CCc3ccc(Cl)cc3)nc2c1 [Cpd 139, 2-{2-[2-(4-chloro-phenyl)-ethyl]-1H-benzimidazol-5-yl}-benzenesulfonamide]",,0.031,98,
"CC(C)(O)c1ccccc1-c1ccc2[nH]c(C3CC3c3ccc(OC(F)(F)F)cc3)nc2c1 (stereo not drawn) [Cpd 497, 2-(2-{2-[2-(4-trifluoromethoxy-phenyl)-cyclopropyl]-1H-benzimidazol-5-yl}-phenyl)-propan-2-ol]",,0.039,94,
"CNS(=O)(=O)c1ccccc1-c1ccc2[nH]c(/C=C/c3c(F)cccc3F)nc2c1 [Cpd 327, (E)-2-{2-[2-(2,6-difluoro-phenyl)-vinyl]-1H-benzimidazol-5-yl}-N-methyl-benzenesulfonamide]",,0.343,77,
"COC(=O)Nc1ccccc1-c1ccc2[nH]c(/C=C/c3ccc(C(F)(F)F)cc3)nc2c1 [Cpd 462, (E)-(2-{2-[2-(4-trifluoromethyl-phenyl)-vinyl]-1H-benzimidazol-5-yl}-phenyl)-carbamic acid methyl ester]",,0.097,98,
